Measured values from patent US8232253B2, “Treatment of lung cancer” (Ramot at Tel-Aviv University Ltd., priority 2006, dated 2012).

Assays:
A549 cells [1] = assay: Drug combination experiments, live cell counting; type: cell-based, human; conditions: FTS alone 40 μM
Protocol: In drug combination experiments, cells were grown for 2 days in the absence or in the presence of 40 μM FTS and were then treated for 4 h with gemcitabine (100 or 200 nM), cisplatin (50 or 100 nM), doxorubicin (50 or 100 nM), or paclitaxel (2.5 or 5 nM). Live cells were counted after a further 3 days of incubation with or without FTS. Experiments were performed twice in quadruplicate. To determine whether A549 cells were resistant to apoptosis, an experiment to examine the survival of human lung cancer A549 cells after exposure to a chemotherapeutic agent in the presence of FTS was performed. Thus, to determine whether treatment with FTS can increase the sensitivity of A549 cells to cytotoxic drugs, A549 cells were incubated for 48 h with DMSO (control) or with 40 μM FTS, then for 4 h with gemcitabine, cisplatin, doxorubicin, or paclitaxel at the indicated concentrations. The cells were then washed and incubated for a further 72 h with DMSO or with 40 μM FTS. Live cells were collected and counted. The numbers of cells in the drug-treated cultures, expressed as percentages of the numbers in the vehicle-treated control, are shown in FIGS. 13A-13D. Values are means±SD. *P<0.05, **P<0.01, compared to vehicle-treated control.

Rac1-GTP = Rac1-GTP pull-down assay in A549 cells; type: cell-based, human
Protocol: (§1) A549 cells were incubated for 24 or 48 h with or without FTS, as described above, and then lysed with lysis buffer as described in Haklai, R., Gana-Weisz, M., Elad, G., et al., Biochemistry 37:1306-14 (1998). The apparent amounts of K-Ras-GTP in 0.5 mg protein of total cell lysates were determined by the glutathione-S-transferase (GST)-RBD (Ras-binding domain of Raf) pull-down assay, as described in (Elad-Sfadia, G., Haklai, R., Ballan, E., Gabius, H. J., Kloog, Y., J Biol Chem 277:37169-75 (2002). The apparent amounts of Rac1-GTP and of RhoA-GTP, each in 2 mg protein of total cell lysates, were determined, respectively, by pull-down assays with GST-PBD (Rac1-binding domain of PAK1)-conjugated and GST-Rhotekin BD (Rho-binding domain of Rhotekin)-conjugated beads [Benard, V., Bohl, B. P., Bokoch, G. M, J Biol Chem 274:13198-204 (1999); Fiordalisi, J. J., Keller, P. J., Cox, A. D., Cancer Res 66:3153-61 (2006). […] Levels of phospho-ERK and phospho-Akt were determined by immunoblotting [Haklai, R., Gana-Weisz, M., Elad, G., et al., supra.] using rabbit anti phospho-ERK1/2 Ab (Santa Cruz Biotechnology, Santa Cruz, Calif.) and rabbit anti phospho-Akt Ab (Cell Signaling, Beverly, Mass.). Protein bands were visualized by enhanced chemiluminescence and quantified by densitometry using ImageJ computer software (National institutes of Health, Bethesda, Md.). […]

[2] = system: human NSCLC cell lines H1734, H2030, H1975, H3255; assay: Alamar blue viable cell assay in NSCLC cell lines; type: cell-based; conditions: increasing FTS concentrations, 96 hours; H1734, H2030 (KRAS mutations), H1975, H3255 (EGFR mutations)
Protocol: To determine whether FTS sensitized other human NSCLC cell lines to cell death, experiments were conducted on cell lines H1734 and H2030 (KRAS mutations) and H1975 and H3255 (EGFR mutations). The four cell lines were grown in increasing concentrations of FTS (dissolved in DMSO). After 96 hours, viable cells were quantified using an Alamar blue assay. Results are the mean±standard error of three independent experiments, in which there were 3 replicates of each condition, as shown in FIG. 15.

A549 cells [3] = assay: Anchorage-independent colony formation assay in soft agar; type: cell-based; conditions: Homo sapiens, A549, 456 h, 19 days, read-out: inhibition of A549 cell growth in soft agar
Protocol: Noble agar (2% and 0.6%; Difco, Detroit, Mich.) was prepared in water and autoclaved. The 2% agar was melted in a microwave oven, mixed 1:1 with medium (×2 Kaighn's modification of Ham's F-12 medium with 20% FCS, 100 U/ml penicillin, and 0.1 mg/ml streptomycin) and poured onto 96-well plates (50 μl per well) to provide the 1% base agar. The 0.6% agar (5 ml) was mixed with 5 ml of medium (×2), containing 8×10^4 A549 cells, and the mixture (50 μl) was plated on top of the base agar. The cells were incubated for 19 days at 37° C. with or without the indicated concentrations of FTS (6 wells for the control and for each treatment) and colonies were stained with MTT (1 mg/ml for 4 h). The colonies were then visualized by light microscopy, imaged, and counted using the ImagePro software. Next, to determine the effect of FTS on the anchorage-independent growth of A549 cells, a soft agar assay was performed. The cells were seeded in soft agar and treated with increasing concentrations of FTS 0 μM, 50 μM and 100 μM (FIGS. 12A-12B). Control cells were treated with 0.1% Me2SO4 (DMSO). FTS inhibited A549 cell growth in soft agar by 27±5.5% and 58±21% at 50 μM and 100 μM FTS, respectively. Thus, FTS inhibited the anchorage-independent growth of A549 cells.

RhoA-GTP = RhoA-GTP pull-down assay in A549 cells; type: cell-based, human
Protocol: as §1

phospho-Akt = assay: Phospho-Akt immunoblotting in A549 cells; type: cell-based, human
Protocol: as §1

CC(C)=CCC/C(C)=C/CC/C(C)=C/CSc1ccccc1C(=O)O [FTS, S-farnesylthiosalicylic acid]
reduction in cell numbers (mean±SD) (A549 cells [1]; cisplatin experiment (FIG. 13C)): 33±9.5%
reduction in cell numbers (mean±SD) (A549 cells [1]; gemcitabine experiment (FIG. 13A)): 25±6.3%
effect on the amount of active Rac1-GTP (Rac1-GTP): no effect
sensitization of NSCLC cell lines to cell death [2]: sensitized
inhibition at 50 µM (A549 cells [3]; 50 μM FTS): 27 ± 5.5%
inhibition at 100 µM (A549 cells [3]; 100 μM FTS): 58 ± 21%
increase in RhoA-GTP (RhoA-GTP): 2±0.2 fold
inhibition of phospho-Akt level (phospho-Akt): 58±6%
